{
  "source": "patent US20050059610A1",
  "about": "(priority 2003, published 2005)",
  "key": {"[1]": {"tested_on": "HSP 72 and 27", "test": "HSP expression in hearts of LPS-injured rats (Western blot)", "format": "in vivo, rat", "details": "0.75 g/kg GLN with 5 mg/kg LPS; six hours; vs LR control", "method": "GLN enhances heat shock protein expression in the unstressed and stressed myocardium. […] The increase was also observed for HSP 27 (another of the protective heat shock proteins) wherein the induction occurred as early as 4-6 hours and persisted for up to 48-72 hours.\nTissues were harvested six hours post-LPS injury and analyzed for HSP 72 expression via Western blot. Each lane represents protein extracts from a separate animal. Relative densitometry are expressed as means ±SE. *−p<0.0005, compared with LR resuscitation alone assessed by Students t test."}, "[2]": {"tested_on": "infection in patients following bone marrow transplantation", "details": "parenteral nutritional program supplemented with glutamine (Calder and Yapoob 1999); cited from earlier work"}, "[3]": {"tested_on": "endotoxin-induced sepsis", "test": "Lethal endotoxemia: survival, HSP expression, cytokine release", "format": "in vivo, rat", "details": "GLN concurrently with lethal doses of endotoxin", "method": "Evaluation of pro-inflammatory cytokine release was also assessed following endotoxemia."}, "[4]": {"tested_on": "critically ill humans", "details": "cited from earlier work; for tolerability of the maximum dose previously administered in humans: even in critically ill patients"}, "[5]": {"tested_on": "serum HSP 70", "test": "Serum HSP-70 levels in critically ill patients (surgical ICU), GLN vs control", "format": "in vivo, human", "details": "for Baseline HSP-70 / LN(Baseline HSP-70): before treatment"}, "[6]": {"tested_on": "experimental SIRS (CLP)", "test": "Serum HSP72 (ELISA) and survival after CLP (experimental SIRS)", "format": "in vivo, Sprague-Dawley rats"}, "[7]": {"tested_on": "sepsis (CLP)", "test": "CLP with or without quercetin (HSP 70 inhibitor): survival, lung HSP/NOS, metabolism, TNF", "format": "in vivo, Sprague-Dawley rats", "method": "Methods: Male Sprague-Dawley rats were divided into 5 groups. Two groups were treated with 400 mg/kg of quercetin (Q) IP (HSP 70 inhibitor) 6 hours pre-CLP. […] The final group (CONT, n=6) received no treatment. Five-day survival was monitored. In separate studies, lung was harvested 24-hours post-CLP and tissue metabolism analyzed by 31P- and 1H-MRS. A final study analyzed blood for TNF- at 6 hours post-CLP and lung tissue 6 hours post-CLP for HSP-70, iNOS, eNOS, and activated heat shock factor-1 (HSF-1)."}, "[8]": {"tested_on": "onset of ischemia (1 mm of ST depression)", "test": "Exercise stress test in patients with chronic stable angina, crossover trial", "format": "in vivo, human", "details": "oral GLN 80 mg/kg 40 minutes prior to exercise stress test; 17 patients; vs placebo", "source_text": "Patients were then crossed over following a one-week interval."}, "[9]": {"details": "non-pancreatic diagnoses, n = 7"}, "[10]": {"details": "GLN 0.75 g/kg IV one-hour post-CLP, 6 hours post-CLP"}},
  "note": "Where two headings read alike, the source gives them in different places.",
  "data": [
    {"smiles": "NC(=O)CC[C@H](N)C(=O)O", "note": "[GLN, Glutamine]", "values": [
      {"measurement": "HSP 72 and 27 expression in heart (western blot)", "setting": "[1]", "value": "markedly enhanced"},
      {"measurement": "level of infection", "setting": "[2]", "value": "lower level of infection"},
      {"measurement": "HSP 70 and 23 following lethal endotoxemia", "setting": "[3]", "value": "enhanced"},
      {"measurement": "mortality following lethal endotoxemia", "setting": "[3]", "value": "reduced mortality"},
      {"measurement": "tolerability of the maximum dose previously administered in humans", "setting": "[4]", "value": "without adverse side effects"},
      {"measurement": "tolerability of the maximum dose previously administered in humans", "setting": "[4]; listed as L-Glutamine", "value": "tolerated well without adverse side effects"},
      {"measurement": "toxicity in critically ill humans", "setting": "[4]; variety of clinical settings", "value": "without any evidence of toxicity"},
      {"measurement": "HSP-70 levels at 1-week, higher than control patients by", "setting": "[5]; 95% CI −0.01 to 5.64, p=0.050", "value": 2.82, "unit": "units"},
      {"measurement": "change in HSP-70 levels from baseline to 1-week, greater than control patients by", "setting": "[5]; 95% CI −0.09 to 5.29, p=0.057", "value": 2.60, "unit": "units"},
      {"measurement": "1-week HSP-70", "setting": "[5]; all diagnoses, n = 15", "value": "4.09 ± 4.70"},
      {"measurement": "HSP-70 change from baseline", "setting": "[5]; all diagnoses, n = 15", "value": "3.48 ± 4.53"},
      {"measurement": "LN(1-week HSP-70)", "setting": "[5]; all diagnoses, n = 15", "value": "0.56 ± 1.63"},
      {"measurement": "LN(1-wk HSP/Baseline HSP)", "setting": "[5]; all diagnoses, n = 15", "value": "1.93 ± 1.23"},
      {"measurement": "Baseline HSP-70", "setting": "[5]; all diagnoses, n = 15", "value": "0.61 ± 1.05"},
      {"measurement": "LN(Baseline HSP-70)", "setting": "[5]; all diagnoses, n = 15", "value": "−1.37 ± 1.26"},
      {"measurement": "enhancement of serum HSP levels versus iso-nitrogenous control solution", "setting": "[5]; intravenous GLN, mixed critically ill patients, surgical ICU", "value": "four-fold enhancement"},
      {"measurement": "1-week HSP-70", "setting": "[5]; [9]", "value": "3.43 ± 5.17"},
      {"measurement": "HSP-70 change from baseline", "setting": "[5]; [9]", "value": "2.60 ± 4.77"},
      {"measurement": "LN(1-week HSP-70)", "setting": "[5]; [9]", "value": "0.20 ± 1.70"},
      {"measurement": "LN(1-wk HSP/Baseline HSP)", "setting": "[5]; [9]", "value": "1.63 ± 1.21"},
      {"measurement": "Baseline HSP-70", "setting": "[5]; [9]", "value": "0.83 ± 1.48"},
      {"measurement": "LN(Baseline HSP-70)", "setting": "[5]; [9]", "value": "−1.43 ± 1.58"},
      {"measurement": "survival following experimental SIRS", "setting": "[6]; 5 days, BSS 18%", "value": 61, "unit": "%"},
      {"measurement": "sHSP72 vs. BSS (ELISA)", "setting": "[6]; GLN (given as ALA-GLN) 0.75 g/Kg 1 hour post-CLP, 6 hours post-CLP", "value": "significantly enhanced"},
      {"measurement": "lung NAD+", "setting": "[7]; 24-hours post-CLP, MRS", "value": "improved"},
      {"measurement": "lung lactate accumulation", "setting": "[7]; 24-hours post-CLP, MRS", "value": "attenuated"},
      {"measurement": "lung eNOS", "setting": "[7]; 6 hours post-CLP", "value": "enhanced"},
      {"measurement": "lung iNOS", "setting": "[7]; 6 hours post-CLP", "value": "attenuated"},
      {"measurement": "plasma TNF- expression", "setting": "[7]; 6 hours post-CLP", "value": "attenuated"},
      {"measurement": "5-day survival", "setting": "[7]; GLN 0.75 g/kg IV one-hour post-CLP", "value": "significant improvement"},
      {"measurement": "lung HSF-1 activation", "setting": "[7]; [10]", "value": "enhanced"},
      {"measurement": "lung HSP70 expression", "setting": "[7]; [10]", "value": "enhanced"},
      {"measurement": "onset of ST depression", "setting": "[8]", "value": "significant delay"}
    ]}
  ]
}
